The values below come from PubChem BioAssay (NCI).

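Each compound was tested at five concentrations against cells in 96-well plates for 48 hours. GI50 is the concentration that inhibits growth by half. TGI: concentration producing complete growth inhibition.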

What all share (assay): NCI tumour cell line growth inhibition, 48 h
Assay [1] deals with IGROV1 ovarian.
Assay [2] concerns OVCAR-4 ovarian.
Assay [3] relates to 786-0 renal.
Assay [4] relates to MCF7 breast.
For assay [5], the system named is BT-549 breast.
Assay [6] deals with OVCAR-8 ovarian.
Assay [7] relates to SK-MEL-28 melanoma.
Assay [8] relates to SF-539 CNS.
The subject of assay [9] is UO-31 renal.
The test system of assay [10] is KM12 colon.

As to `Cc1cc(O)c(O)c(Oc2cc(C)cc(O)c2O)c1`, the TGI in assay [1] was 69.6 µM; in [2], 28.8 µM; in assay [3], 55.5 µM; in assay [4], 29.3 µM; in [5] it was 78.9 µM; in [6], 45.1 µM. Also, the TGI in assay [7], in [8], in assay [9] and in [10] was > 100 µM in each case.
With `Cc1csc(-c2ccc3c(c2)COC3(CCCN(C)C)c2ccc(F)cc2)c1` (centres undefined), the GI50 is 1.67 µM in assay [1]; 1.67 µM in assay [2]; 1.8 µM in assay [3]; 1.7 µM in assay [4]; 1.6 µM in [5]; 2.35 µM in [6]. Also, the GI50 is 1.77 µM in assay [7], 1.8 µM in assay [8], 1.46 µM in assay [9] and 1.95 µM in assay [10]. The TGI in assay [1] is 3.32 µM; in assay [2], 3.11 µM; in [3], 3.39 µM; in assay [4] it was 3.38 µM; in assay [5], 3.2 µM; in assay [6], 5.69 µM. In addition, the TGI was found to be 3.3 µM in [7], 3.22 µM in assay [8], 2.79 µM in [9] and 3.75 µM in assay [10].
In the case of `O=C(Nc1ccc(O)c(NS(=O)(=O)c2ccc(F)cc2)c1)c1ccc(-c2ccccc2)cc1`, the GI50 in assay [1] was 4.65 µM; in assay [2], 4.45 µM; in [3], 7.87 µM; in assay [4], 3.85 µM; in assay [5] it was 4.6 µM; in assay [6], 5.32 µM. Further, the GI50 in assay [7] is 9.06 µM; in [8], 8.93 µM; in assay [9] it was 3.35 µM; in assay [10], 10 µM. Besides, the TGI was 20.5 µM in [1]; 25.3 µM in [2]; 22.7 µM in [3]; 17.4 µM in [4]; 20.2 µM in [5]; > 100 µM in assay [6]. Also, the TGI was 23.5 µM in [7], 22.4 µM in assay [8], > 100 µM in assay [9] and 23.3 µM in assay [10].
Turning to `O=C(Nc1ccc(Cl)cc1F)c1cc(Cl)ccc1O`, the GI50 in [1] is 0.247 µM; in [2], 0.34 µM; in [3] it was 1.09 µM; in assay [4], 0.442 µM; in [5] it was 0.379 µM; in [6], 0.619 µM. For the same molecule, the GI50 in assay [7] is 0.364 µM; in [8] it was 0.432 µM; in assay [9], 0.208 µM; in [10], 1.51 µM. Further, the TGI in [1] was > 100 µM; in assay [2] it was > 100 µM; in assay [3] it was 7.03 µM; in assay [4] it was 10.2 µM; in [5], 2.04 µM; in [6], > 37.2 µM. For the same molecule, the TGI in [7] was 1.84 µM; in [8], 4.58 µM; in [9], 1.92 µM; in [10], 4.28 µM.
Take `Cc1nn(-c2ccccc2)c(C)c1/C=N/N1CCN(Cc2ccccc2)CC1`: the GI50 is 22.9 µM in [3]; 31 µM in assay [4]; 48.2 µM in assay [5]; > 100 µM in [6]; 80.5 µM in [7]; 76.4 µM in assay [8]. Besides, the GI50 was 66.4 µM in assay [9] and 31.3 µM in assay [10]. Besides, the TGI in assay [3] was 97.4 µM; in assay [4], > 100 µM; in assay [5], > 100 µM; in assay [6] it was > 100 µM; in [7], > 100 µM; in assay [8], > 100 µM. Besides, the TGI in assay [9] and in [10] was > 100 µM in each case.
Regarding `CNC(=O)c1c(NC(=O)c2ccc(C(C)C)cc2)sc2c1CCC(=O)C2`, the GI50 in assay [1] is 0.542 µM; in assay [2], 0.32 µM; in assay [3], 0.636 µM; in [4], 0.428 µM; in assay [5], 0.505 µM; in assay [6], 0.338 µM. The GI50 in [7] was 0.748 µM; in assay [8] it was 0.306 µM; in assay [9] it was 0.26 µM; in assay [10], 0.404 µM. In addition, the TGI was 2.4 µM in assay [1]; 1.16 µM in assay [2]; 3.91 µM in [3]; 5.32 µM in [4]; 2.71 µM in assay [5]; 2.38 µM in assay [6]. For the same molecule, the TGI in assay [7] came to 3.39 µM; in [8], 1.22 µM; in assay [9], 1.1 µM; in assay [10], 1.69 µM.
Take `COc1cc(/C=N/Nc2ncnc3c2cnn3Cc2ccccc2)ccc1O`: the GI50 is 14.8 µM in assay [1]; 5.05 µM in [2]; 6.92 µM in assay [3]; > 18 µM in [4]; 12.2 µM in assay [5]; 5.85 µM in assay [6]. Moreover, the GI50 in assay [7] was > 19.6 µM; in assay [8], 8.12 µM; in [9], 1.93 µM; in [10] it was 7.68 µM. For the same molecule, the TGI in assay [1] is > 25 µM; in [2], 15.3 µM; in assay [3], 18.8 µM; in [4] it was > 25 µM; in assay [5] it was > 25 µM; in assay [6], > 19.8 µM. The TGI in [7] is > 25 µM; in assay [8], 24.4 µM; in assay [9], 11.9 µM; in [10], > 25 µM.
Consider `CC(=O)Nc1ccc(S(=O)(=O)c2ccc(NC(C)=O)cc2)cc1`, for which the GI50 in assay [1], in assay [2], in assay [3], in assay [4], in assay [5] and in assay [6] was > 100 µM each time. Moreover, the GI50 in assay [7], in assay [9] and in assay [10] was > 100 µM throughout. The TGI in assay [1], in assay [2], in [3], in [4], in assay [5] and in assay [6] was > 100 µM each time. Also, the TGI in [7], in assay [9] and in assay [10] was > 100 µM throughout.
